The subject of this test is Nalm6. The test can be described thus: Cytotoxicity (MTT / trypan blue) in Nalm6 cells. Type of test: cell-based. As to conditions: Homo sapiens, NALM-6, read-out: Cytotoxicity IC 50 in μM (Cell lines) Nalm6. Here is the method: Human cancer cell lines, K562, MCF7, HeLa and HEK 293T were purchased from National Centre for Cell Science, Pune, India. Cells were grown in RPMI 1640/MEM/DMEM supplemented with 10% heat-inactivated fetal bovine serum (FBS), 100 U/mL of Penicillin, and 100 μg of streptomycin/mL and incubated at 37° C. in a humidified atmosphere containing 5% CO2.
Nalm6, Molt4 and Reh cells were provided by Dr. Sathees C. Raghavan, Department of Biochemistry, IISc, Bangalore. The cells were grown under the similar culture conditions as mentioned above.
The human T cell leukemia cell line Molt4, Human acute lymphoblastic leukemia (ALL) cell line Nalm6, Human acute myelocytic leukemia (AML) cell line Reh, chronic myelogenous leukemia (CML) cell line K562, Human breast adenocarcinoma cell lines like MCF7 and human kidney cell line HEK 293T (Human embryonic kidney cell line) were selected for the purpose of preliminary anticancer screening of newly synthesized compounds (ASR1 to ASR15). To check the cytotoxicity, trypan blue dye exclusion assays, MTT assay were employed as described earlier Further, Cell cycle analysis, Mitochondrial membrane potential, Annexin-V FITC staining assay were also performed in order to understand the mode of cell death after treatment with ASR6. Further, ASR6 was also tested for its ability to inhibit topoisomerase I and II activity in vitro.
Cytotoxic effect of the newly synthesized compounds against leukemic cells was assessed using 3-(4, 5-dimethyl-2-yl02, 5-diphenyl tetrazolium bromide (MTT) assay. After exposure of compound at different concentration (0.01, 0.1, 0.5, 1, 10, 50 and 100 μM) cells were harvested and transferred into 96 well plate, MTT (5 mg/ml) was added and incubate at 37° C. for 4 h and formazan crystals were dissolved by adding solubilizing agent (10% SDS and 50% dimethyl formamide) for 1 h, finally plate was read at 570 nm (Bio-Rad, USA). Results were represented as inhibition of percentage of cell proliferation in bar diagram (n=3) (FIGS. 1 A, C, E and G).
To determine the growth inhibitory activity of the drug, 0.5×10^5 cell/ml were plated in 24 well (Biofil, USA.) in 1 ml of complete medium and treated with various concentration of the compound to test, cells were stained with 0.4% trypan blue and counted on a hemocytometer after treatment with compounds at 48 and 72 h time point. Results were represented as number of viable cells/ml in bar diagram (FIGS. 1 B, D, F, and H) (n=3).

Consider `CCOC(=O)c1[nH]c(-c2ccc(Cl)cc2)cc1-c1cccnc1` [ASR6, Ethyl 5-(4-chlorophenyl)-3-(pyridin-3-yl)-1H-pyrrole-2-carboxylate], for which the IC50 was found to be 0.344 µM.

The record behind these values is US20180251425A1, “2,3,5 TRISUBSTITUTED PYRROLE DERIVATIVES AS TOPOISOMERASE INHIBITORS AND THERAPEUTIC USES THEREOF” (UNIVERSITY OF MYSORE, priority 2015, published 2018).
